According to the kinase profiling compilation of Christmann-Franck et al. (2016):

Key:
Assay in all cases: radiometric filter-binding kinase assay
[1] = biological target: STK33 (human) (UniProt Q9BYT3)
[2] = biological target: TEK (human) (UniProt Q02763)
[3] = test system: TGFBR1 (human), P36897 [T204D]
[4] = biological target: MAPKAPK3 (human) (UniProt Q16644)
[5] = biological target: TSSK1B (human) (UniProt Q9BXA7)
[6] = biological target: ULK2 (human) (UniProt Q8IYT8)
[7] = biological target: MAP4K3 (human) (UniProt Q8IVH8)
[8] = biological target: EIF2AK3 (human) (UniProt Q9NZJ5)
[9] = biological target: STK24 (human) (UniProt Q9Y6E0)
[10] = biological target: TTBK1 (human) (UniProt Q5TCY1)
[11] = biological target: SIK3 (human) (UniProt Q9Y2K2)
[12] = biological target: DDR2 (human) (UniProt Q16832)
[13] = biological target: WNK1 (human) (UniProt Q9H4A3)
[14] = biological target: IRAK1 (human) (UniProt P51617)
[15] = biological target: ULK1 (human) (UniProt O75385)
[16] = test system: PRKAA1 or PRKAA2 (rat); settings: accession and sequence are those of the human protein
[17] = biological target: CDK9 CCNT1 (human) (UniProt P50750+O60563)
[18] = biological target: ZAP70 (human) (UniProt P43403)
[19] = biological target: CSNK1G2 (human) (UniProt P78368)
[20] = biological target: MAP4K5 (human) (UniProt Q9Y4K4)
[21] = test system: OXSR1 (human), O95747 [T185E]
[22] = biological target: TLK1 (human) (UniProt Q9UKI8)
[23] = biological target: TESK1 (human) (UniProt Q15569)
[24] = biological target: MAPK7 (human) (UniProt Q13164)
[25] = biological target: PTK6 (human) (UniProt Q13882)
[26] = biological target: PDGFRA (human) (UniProt P16234)
[27] = biological target: PRKCG (human) (UniProt P05129)
[28] = biological target: PRKAA1 PRKAB2 PRKAG1 (human) (UniProt O43741+Q13131+P54619)
[29] = biological target: STK16 (human) (UniProt O75716)
[30] = biological target: TTBK2 (human) (UniProt Q6IQ55)
[31] = biological target: SIK2 (human) (UniProt Q9H0K1)
[32] = biological target: ABL1 (human) (UniProt P00519)

Chain of MAPKAPK3 (human) (Q16644 whole entry, looked up): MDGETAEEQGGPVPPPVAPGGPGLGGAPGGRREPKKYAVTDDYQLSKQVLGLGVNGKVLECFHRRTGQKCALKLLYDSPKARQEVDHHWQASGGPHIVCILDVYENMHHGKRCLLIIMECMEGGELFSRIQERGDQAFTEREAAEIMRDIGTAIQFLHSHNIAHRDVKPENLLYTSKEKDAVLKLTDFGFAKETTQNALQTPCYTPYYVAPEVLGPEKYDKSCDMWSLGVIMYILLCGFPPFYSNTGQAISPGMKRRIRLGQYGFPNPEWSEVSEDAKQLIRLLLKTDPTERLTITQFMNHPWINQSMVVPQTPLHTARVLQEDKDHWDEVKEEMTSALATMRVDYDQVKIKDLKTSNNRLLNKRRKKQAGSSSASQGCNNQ
Chain of CDK9 CCNT1 (human) (O60563 whole entry, looked up): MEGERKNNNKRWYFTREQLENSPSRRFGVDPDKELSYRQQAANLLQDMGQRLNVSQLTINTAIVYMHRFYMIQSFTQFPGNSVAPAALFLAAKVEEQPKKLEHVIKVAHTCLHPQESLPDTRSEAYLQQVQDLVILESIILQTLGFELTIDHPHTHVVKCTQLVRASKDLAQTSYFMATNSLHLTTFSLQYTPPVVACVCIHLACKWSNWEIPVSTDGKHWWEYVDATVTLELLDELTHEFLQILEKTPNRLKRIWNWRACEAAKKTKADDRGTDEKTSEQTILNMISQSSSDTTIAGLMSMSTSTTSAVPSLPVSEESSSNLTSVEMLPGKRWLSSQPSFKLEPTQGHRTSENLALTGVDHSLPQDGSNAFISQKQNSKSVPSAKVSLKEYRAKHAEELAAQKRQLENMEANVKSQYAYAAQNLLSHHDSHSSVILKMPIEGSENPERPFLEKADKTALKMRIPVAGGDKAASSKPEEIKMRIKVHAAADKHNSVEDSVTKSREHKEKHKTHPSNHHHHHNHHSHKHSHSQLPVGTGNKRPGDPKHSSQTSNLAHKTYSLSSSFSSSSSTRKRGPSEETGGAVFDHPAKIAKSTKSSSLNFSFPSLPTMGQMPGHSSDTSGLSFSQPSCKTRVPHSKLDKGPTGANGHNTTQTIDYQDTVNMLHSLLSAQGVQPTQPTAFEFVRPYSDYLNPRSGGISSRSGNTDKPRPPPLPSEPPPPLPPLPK
Chain of CDK9 CCNT1 (human) (P50750 whole entry, looked up): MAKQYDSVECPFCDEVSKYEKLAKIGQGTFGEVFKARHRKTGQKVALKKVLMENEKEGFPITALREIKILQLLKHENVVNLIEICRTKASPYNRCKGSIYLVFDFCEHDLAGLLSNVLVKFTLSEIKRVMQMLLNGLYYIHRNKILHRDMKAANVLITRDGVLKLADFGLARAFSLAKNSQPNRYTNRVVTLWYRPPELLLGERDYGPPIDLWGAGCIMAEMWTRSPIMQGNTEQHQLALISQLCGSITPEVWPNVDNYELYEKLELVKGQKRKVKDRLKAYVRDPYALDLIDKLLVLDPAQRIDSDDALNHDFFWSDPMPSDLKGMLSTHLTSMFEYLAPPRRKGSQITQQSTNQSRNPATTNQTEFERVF
Chain of ULK2 (human) (Q8IYT8 whole entry, looked up): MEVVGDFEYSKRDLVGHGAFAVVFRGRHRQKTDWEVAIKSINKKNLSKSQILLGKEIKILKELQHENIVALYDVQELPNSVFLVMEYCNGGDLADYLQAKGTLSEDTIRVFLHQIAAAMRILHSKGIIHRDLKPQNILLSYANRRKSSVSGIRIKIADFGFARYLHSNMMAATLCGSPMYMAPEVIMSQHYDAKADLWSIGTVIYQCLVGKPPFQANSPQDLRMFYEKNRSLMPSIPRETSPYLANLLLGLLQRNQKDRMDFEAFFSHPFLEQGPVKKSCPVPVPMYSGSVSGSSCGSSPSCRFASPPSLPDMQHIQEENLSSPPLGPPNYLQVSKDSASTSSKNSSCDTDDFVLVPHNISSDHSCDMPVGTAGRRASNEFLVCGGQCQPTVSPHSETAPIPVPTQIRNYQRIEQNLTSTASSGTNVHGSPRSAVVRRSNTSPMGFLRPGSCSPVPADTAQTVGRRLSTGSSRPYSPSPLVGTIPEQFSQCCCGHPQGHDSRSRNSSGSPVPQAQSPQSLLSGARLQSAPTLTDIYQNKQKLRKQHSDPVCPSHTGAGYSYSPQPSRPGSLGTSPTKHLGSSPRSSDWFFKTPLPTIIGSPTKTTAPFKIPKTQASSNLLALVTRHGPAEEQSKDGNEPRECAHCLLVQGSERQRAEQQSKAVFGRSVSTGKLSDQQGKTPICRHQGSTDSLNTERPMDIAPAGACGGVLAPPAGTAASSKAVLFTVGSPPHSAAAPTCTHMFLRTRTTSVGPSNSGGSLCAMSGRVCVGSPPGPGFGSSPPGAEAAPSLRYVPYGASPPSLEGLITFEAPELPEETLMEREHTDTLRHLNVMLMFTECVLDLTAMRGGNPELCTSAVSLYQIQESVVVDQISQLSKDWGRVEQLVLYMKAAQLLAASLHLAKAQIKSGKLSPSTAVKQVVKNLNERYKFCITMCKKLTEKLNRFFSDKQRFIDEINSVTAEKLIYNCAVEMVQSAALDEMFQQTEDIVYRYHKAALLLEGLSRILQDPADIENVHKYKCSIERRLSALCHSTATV
Chain of WNK1 (human) (Q9H4A3 whole entry, looked up): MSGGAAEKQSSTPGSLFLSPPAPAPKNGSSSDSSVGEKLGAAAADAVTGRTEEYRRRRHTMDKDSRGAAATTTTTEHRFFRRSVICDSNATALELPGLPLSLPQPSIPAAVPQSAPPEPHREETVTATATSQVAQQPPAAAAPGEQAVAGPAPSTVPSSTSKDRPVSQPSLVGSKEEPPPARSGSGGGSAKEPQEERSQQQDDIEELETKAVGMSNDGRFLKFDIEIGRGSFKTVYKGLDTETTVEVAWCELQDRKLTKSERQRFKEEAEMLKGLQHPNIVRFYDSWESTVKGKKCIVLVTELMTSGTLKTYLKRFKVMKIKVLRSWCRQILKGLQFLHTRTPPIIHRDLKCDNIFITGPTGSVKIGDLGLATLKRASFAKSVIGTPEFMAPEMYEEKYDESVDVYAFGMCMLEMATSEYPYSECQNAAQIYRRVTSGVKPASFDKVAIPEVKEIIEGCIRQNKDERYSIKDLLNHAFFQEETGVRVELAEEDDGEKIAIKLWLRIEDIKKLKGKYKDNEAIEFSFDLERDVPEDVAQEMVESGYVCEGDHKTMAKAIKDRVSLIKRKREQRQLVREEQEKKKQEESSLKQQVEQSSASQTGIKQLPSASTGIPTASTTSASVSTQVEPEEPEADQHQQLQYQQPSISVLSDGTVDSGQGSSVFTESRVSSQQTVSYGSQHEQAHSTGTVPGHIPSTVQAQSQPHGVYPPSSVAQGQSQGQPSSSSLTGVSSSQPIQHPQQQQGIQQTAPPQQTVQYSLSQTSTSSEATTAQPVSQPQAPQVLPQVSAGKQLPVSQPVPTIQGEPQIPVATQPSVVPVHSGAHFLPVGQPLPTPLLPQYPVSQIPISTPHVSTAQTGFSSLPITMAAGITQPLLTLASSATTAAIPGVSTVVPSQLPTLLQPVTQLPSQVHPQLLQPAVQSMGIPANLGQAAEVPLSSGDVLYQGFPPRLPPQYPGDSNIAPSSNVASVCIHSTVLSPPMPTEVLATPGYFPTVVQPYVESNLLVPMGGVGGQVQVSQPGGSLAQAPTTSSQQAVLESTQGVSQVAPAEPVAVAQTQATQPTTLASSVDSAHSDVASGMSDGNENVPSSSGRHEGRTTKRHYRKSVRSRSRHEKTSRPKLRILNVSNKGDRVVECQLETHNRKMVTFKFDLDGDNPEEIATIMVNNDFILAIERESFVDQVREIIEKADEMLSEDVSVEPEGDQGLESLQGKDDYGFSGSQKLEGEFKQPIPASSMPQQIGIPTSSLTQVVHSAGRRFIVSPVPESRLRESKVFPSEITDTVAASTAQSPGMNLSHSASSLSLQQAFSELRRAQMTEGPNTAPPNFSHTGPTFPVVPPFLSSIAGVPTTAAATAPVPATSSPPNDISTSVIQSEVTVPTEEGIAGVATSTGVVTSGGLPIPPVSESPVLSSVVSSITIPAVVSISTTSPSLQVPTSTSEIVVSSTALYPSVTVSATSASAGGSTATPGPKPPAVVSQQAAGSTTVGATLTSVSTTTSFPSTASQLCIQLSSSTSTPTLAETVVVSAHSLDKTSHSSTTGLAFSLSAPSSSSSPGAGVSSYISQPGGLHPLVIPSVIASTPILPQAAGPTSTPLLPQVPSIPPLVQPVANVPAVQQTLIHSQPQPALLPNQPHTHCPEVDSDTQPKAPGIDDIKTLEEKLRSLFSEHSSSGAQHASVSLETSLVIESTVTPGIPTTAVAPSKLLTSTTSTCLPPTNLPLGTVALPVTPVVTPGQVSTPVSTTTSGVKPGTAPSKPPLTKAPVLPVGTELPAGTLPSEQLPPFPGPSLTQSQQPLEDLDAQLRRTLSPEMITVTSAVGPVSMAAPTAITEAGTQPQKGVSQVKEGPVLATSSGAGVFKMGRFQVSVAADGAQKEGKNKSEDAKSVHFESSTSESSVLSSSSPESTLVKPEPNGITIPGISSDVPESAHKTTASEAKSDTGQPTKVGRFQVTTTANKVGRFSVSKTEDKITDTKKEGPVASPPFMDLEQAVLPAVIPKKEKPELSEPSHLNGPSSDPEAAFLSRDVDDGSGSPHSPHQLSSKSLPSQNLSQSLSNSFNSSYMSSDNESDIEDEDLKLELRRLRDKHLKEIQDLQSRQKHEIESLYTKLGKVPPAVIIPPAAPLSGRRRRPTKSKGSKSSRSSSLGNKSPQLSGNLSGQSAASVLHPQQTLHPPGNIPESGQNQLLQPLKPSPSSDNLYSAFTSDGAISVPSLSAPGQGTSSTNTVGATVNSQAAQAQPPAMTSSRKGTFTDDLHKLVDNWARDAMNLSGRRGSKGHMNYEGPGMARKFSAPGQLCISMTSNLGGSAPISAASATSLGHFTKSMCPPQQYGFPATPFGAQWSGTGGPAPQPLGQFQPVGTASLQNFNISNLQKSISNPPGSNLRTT

CCn1c(-c2nonc2N)nc2cncc(CNC3CCNCC3)c21
residual activity ([1]; compound 0.1 µM): 104%
residual activity ([1]; compound 1.0 µM): 106%
residual activity ([1]; compound 10.0 µM): 74%
residual activity ([2]; compound 1.0 µM): 116%
residual activity ([2]; compound 10.0 µM): 111%
residual activity ([3]; compound 0.1 µM): 85%
residual activity ([3]; compound 1.0 µM): 90%
residual activity ([3]; compound 10.0 µM): 92%
residual activity ([4]; compound 0.1 µM): 98%
residual activity ([4]; compound 1.0 µM): 101%
residual activity ([4]; compound 10.0 µM): 97%
residual activity ([5]; compound 0.1 µM): 88%
residual activity ([5]; compound 10.0 µM): 42%
residual activity ([6]; compound 0.1 µM): 93%
residual activity ([6]; compound 1.0 µM): 98%
residual activity ([6]; compound 10.0 µM): 73%
residual activity ([7]; compound 0.1 µM): 99%
residual activity ([7]; compound 10.0 µM): 66%
residual activity ([8]; compound 0.1 µM): 93%
residual activity ([8]; compound 1.0 µM): 105%
residual activity ([8]; compound 10.0 µM): 94%
residual activity ([9]; compound 0.1 µM): 86%
residual activity ([9]; compound 1.0 µM): 91%
residual activity ([9]; compound 10.0 µM): 73%
residual activity ([10]; compound 0.1 µM): 104%
residual activity ([10]; compound 1.0 µM): 100%
residual activity ([10]; compound 10.0 µM): 91%
residual activity ([11]; compound 0.1 µM): 89%
residual activity ([11]; compound 1.0 µM): 94%
residual activity ([11]; compound 10.0 µM): 89%
residual activity ([12]; compound 0.1 µM): 108%
residual activity ([12]; compound 1.0 µM): 97%
residual activity ([12]; compound 10.0 µM): 104%
residual activity ([13]; compound 0.1 µM): 106%
residual activity ([13]; compound 1.0 µM): 102%
residual activity ([13]; compound 10.0 µM): 100%
residual activity ([14]; compound 0.1 µM): 99%
residual activity ([14]; compound 1.0 µM): 103%
residual activity ([14]; compound 10.0 µM): 75%
residual activity ([15]; compound 0.1 µM): 83%
residual activity ([15]; compound 1.0 µM): 74%
residual activity ([15]; compound 10.0 µM): 43%
residual activity ([16]; compound 0.1 µM): 95%
residual activity ([16]; compound 1.0 µM): 82%
residual activity ([16]; compound 10.0 µM): 29%
residual activity ([17]; compound 0.1 µM): 103%
residual activity ([17]; compound 1.0 µM): 115%
residual activity ([17]; compound 10.0 µM): 103%
residual activity ([18]; compound 0.1 µM): 83%
residual activity ([18]; compound 1.0 µM): 84%
residual activity ([18]; compound 10.0 µM): 84%
residual activity ([19]; compound 0.1 µM): 101%
residual activity ([19]; compound 1.0 µM): 92%
residual activity ([19]; compound 10.0 µM): 92%
residual activity ([20]; compound 0.1 µM): 107%
residual activity ([20]; compound 1.0 µM): 103%
residual activity ([20]; compound 10.0 µM): 84%
residual activity ([21]; compound 0.1 µM): 107%
residual activity ([21]; compound 1.0 µM): 102%
residual activity ([21]; compound 10.0 µM): 97%
residual activity ([22]; compound 0.1 µM): 92%
residual activity ([22]; compound 1.0 µM): 92%
residual activity ([22]; compound 10.0 µM): 88%
residual activity ([23]; compound 0.1 µM): 103%
residual activity ([23]; compound 1.0 µM): 114%
residual activity ([23]; compound 10.0 µM): 104%
residual activity ([24]; compound 0.1 µM): 96%
residual activity ([24]; compound 1.0 µM): 83%
residual activity ([24]; compound 10.0 µM): 64%
residual activity ([25]; compound 0.1 µM): 91%
residual activity ([25]; compound 10.0 µM): 91%
residual activity ([26]; compound 0.1 µM): 120%
residual activity ([26]; compound 1.0 µM): 101%
residual activity ([26]; compound 10.0 µM): 99%
residual activity ([27]; compound 0.1 µM): 96%
residual activity ([27]; compound 1.0 µM): 80%
residual activity ([27]; compound 10.0 µM): 46%
residual activity ([28]; compound 0.1 µM): 115%
residual activity ([28]; compound 1.0 µM): 78%
residual activity ([28]; compound 10.0 µM): 34%
residual activity ([29]; compound 1.0 µM): 103%
residual activity ([29]; compound 10.0 µM): 83%
residual activity ([30]; compound 0.1 µM): 91%
residual activity ([30]; compound 1.0 µM): 95%
residual activity ([30]; compound 10.0 µM): 101%
residual activity ([31]; compound 0.1 µM): 97%
residual activity ([31]; compound 1.0 µM): 93%
residual activity ([31]; compound 10.0 µM): 95%
residual activity ([32]; compound 0.1 µM): 102%
residual activity ([32]; compound 1.0 µM): 109%
residual activity ([32]; compound 10.0 µM): 96%
